According to patent EP3431484A1, “A FLUORESCENT CYCLIC DINUCLEOTIDE AND ITS USE IN METHODS OF IDENTIFYING SUBSTANCES HAVING AN ABILITY TO MODULATE THE CGAS/STING PATHWAY” (Ludwig-Maximilians-Universität München, priority 2017, dated 2019):

Tested on: human truncated STING (hSTING^cd), cytosolic domain aa 139-379, R220H+H232R variant
Settings: 200 µM hSTING^cd, 0-150 µM competitor; Figure 10d
Protocol: The quenching effect of STING on 2'3'fGAMP can be further used to search and compare STING-binding compounds. […] After second round of incubation for 15 min the samples were measured in 96-well black non-binding PS plates (Greiner Bio-One) on Tecan infinite M1000 (λex=305 nm, λem=363 nm, gain 140, settle time 10ms) at 25°C.

## Nc1nc2c(ncn2[C@@H]2O[C@@H]3COP(=O)(O)O[C@H]4[C@@H](O)[C@H](n5cnc6c(=O)[nH]c(N)nc65)O[C@@H]4COP(=O)(O)O[C@H]3[C@H]2O)c(=O)[nH]1 [c-di-GMP]
  affinity towards STING, compared by slope of fluorescence increase (s1, s2): lower affinity
